Like-named read-outs stand apart in the source and are kept apart here.
Key:
[1] = test system: collagen-induced arthritis; test: Collagen-induced arthritis model, etanercept sustained release composition (Example 8); type: in vivo, Lewis rats
[2] = test system: collagen-induced arthritis
Description: (§1) During the 14-day study period, the rats were examined 3 times a week for the following outcomes: • Body weight loss, which is one of the parameters for evaluating the severity of arthritis. • Clinical Visual Arthritis Score, which is a visual score which correlates with the severity of arthritis. It was graded using an articular index of each paw, ranging from 0 to 4 (0=no edema or erythema on the foot pad; 1=slight edema and erythema on the foot pad; 2=mild edema and erythema on the foot pad; 3=moderate edema and erythema on the entire foot pad and the ankle; 4=severe edema and joint rigidity of the ankle, foot and digits). The Clinical Visual Arthritis Score for each rat was the sum of the articular index of both hind paws, with a maximum score of 8. • Hind paw volume and swelling. The hind paw volume was measured by UGO Plethysmometer 7149 measuring system. The final volume data was normalized with the average body weight (ml/kg) and edema was defined as the increase in paw volume on the day of measurement relative to day 0.

[3] = test system: collagen-induced arthritis; test: Collagen-induced arthritis model, indomethacin sustained release composition (Example 6); type: in vivo, Lewis rats
Description: as §1
An in vivo evaluation of the effect of the indomethacin sustained release composition on arthritis was performed using 18 female Lewis rats (BioLASCO Taiwan Co, Ltd., Taiwan).
The arthritis treatments were initiated at the peak of the clinical visual arthritis score, which occurred at day 19. Eighteen rats were randomly divided into three groups (6 rats in each group): (1) control group (without any treatment, labeled “Control” in FIG. 9); (2) free indomethacin group (2 mg/kg indomethacin per dose, labeled “Indomethacin (2 mg/kg) in FIG. 9); and (3) indomethacin sustained release composition group (2 mg/kg indomethacin per dose; labeled “Indomethacin-BioSeizer (2 mg/kg) in FIG. 9). The rats in each group were given no treatment (control group), daily subcutaneous injection around the arthritis joints of free indomethacin or indomethacin sustained release composition, from day 19 to day 23.

[4] = test system: arthritis induced with bovine type II collagen; test: Single IA injection of DSP sustained release compositions in arthritic rats (Example 3); type: in vivo, Lewis rats
Method: Sixteen female rats, aged 8 weeks, were used in the study. The average body weight of the rats was from about 180 to about 200 grams.
To induce arthritis, each rat was immunized with 200 μg of bovine type II collagen (4 mg/ml stocked in 10 mM acetic acid, commercially available from Elastin Products, Owensville, USA) emulsified in Freund's incomplete adjuvant (commercially available from Sigma Chemical Co., USA) on day 0 and then again on day 7.
The rats were randomized into the following 4 study groups:
Group 1: 4 rats each received 100 μl of saline per paw (labeled “Saline Control in FIGS. 1-8)
Group 3: 4 rats each received 100 μl of the sustained release composition 1 per paw, wherein the concentration of DSP is 1 mg/ml (labeled “TLC399_1 mg/mg in FIGS. 1-4 and “TLC399_I 4 mg/ml in FIGS. 5-8).
Group 4: 4 rats each received 100 μl of the sustained release composition 2 per paw, wherein the concentration of DSP is 1.4 mg/ml (labeled “TLC399_1.4 mg/mg in FIGS. 1-4 and “TLC399_II 1.4 mg/ml in FIGS. 5-8).
The control or the DSP formulation was administered to both hind paws of the rat as a once only IA injection on day 19.

[5] = test system: arthritis induced with bovine type II collagen; test: Four daily IA injections of DSP sustained release compositions in arthritic rats (Example 4); type: in vivo, Lewis rats; settings: four daily IA injections day 26 to day 29
Description: as §1

[6] = day 30, doses on day 23 and day 26

etanercept [free etanercept] was tested, and the average arthritis score ([1]; day 26, 50 mg/kg etanercept per dose on day 23 and day 26) was 2.4, the arthritis score [1, 6] was 4 and the “time after termination of treatment until arthritis relapsed / amelioration continued” value ([1]; doses on day 23 and day 26) was 3 days.
With `CN(Cc1cnc2nc(N)nc(N)c2n1)c1ccc(C(=O)N[C@@H](CCC(=O)[O-])C(=O)[O-])cc1.[Na+].[Na+]` [free methotrexate, methotrexate sodium] the “average arthritis score before treatment” value ([2]; before the first dose on day 23) was 3.7, the average arthritis score ([2]; day 26, 1 mg/kg methotrexate per dose on day 23 and day 26) was 1.4 and the arthritis score [2, 6] was 3.5. For the same compound, the “time after termination of treatment until arthritis signs returned / amelioration continued” value ([2]; doses on day 23 and day 26) was 4 days.
With `COc1ccc2c(c1)c(CC(=O)O)c(C)n2C(=O)c1ccc(Cl)cc1` [free indomethacin, Indomethacin sodium] the “average arthritis score before treatment” value ([3]; before the first dose on day 19) was 7.4, the average arthritis score ([3]; day 20, 2 mg/kg indomethacin per dose, daily from day 19 to day 23) was 5 and the arthritis score ([3]; day 25, after termination of treatment on day 23) was 8. The “time after termination of treatment until arthritis signs returned / amelioration continued” value ([3]; treatment day 19 to day 23) was 2 days.
In the case of “dexamethasone sodium phosphate [free DSP]”, the “paw swelling thickness, both paws” value ([4]; day 23, volume normalized with body weight) is reported as “around 7.5 ml/kg”, the “clinical visual arthritis score” value ([4]; day 26, single IA injection on day 19) is reported as 4.5 and the “clinical visual arthritis score, average” value ([4]; prior to the IA injection (day 19), sum of both hind paws, maximum 8) is reported as 4.0. The “day on which both paws became swollen again” value ([4]; single IA injection on day 19) was 23 days, the “clinical visual arthritis score, lowest recorded” value ([5]; day 30) was 3 and the “day on which paws were swollen again / first sign of paw swelling” value [5] was 31 days. For the same compound, the “day on which relapsed arthritis signs became severe” value [5] was 33 days.
